These results are taken from PubChem BioAssay AID330 (DTP/NCI, 2004).

This assay relates to P388 leukemia ip, CD2F1 mice, survival T/C. Kind of assay: NCI In Vivo Anticancer Drug Screen. Data for tumor model P388 Leukemia (intraperitoneal) in CD2F1 (CDF1) mice. The note with it: endpoint: median survival time, higher = longer survival. The procedure, abridged:
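Mice carrying the transplanted tumor received test compound or vehicle. Survival was recorded in each group, and the value is the treated-group measurement divided by that of the vehicle-treated control group.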

Where [1] appears, read: dose: 12.5 mg/kg/injection, schedule: Q01DX009 (ip), vehicle: Klucel (hydroxypropylcellulose) (HPC).
The mark [2] stands for this setting: dose: 25.0 mg/kg/injection, schedule: Q01DX009 (ip), vehicle: Klucel (hydroxypropylcellulose) (HPC).
[3] abbreviates: dose: 12.5 mg/kg/injection, schedule: Q01DX009 (ip), vehicle: saline.
[4] abbreviates: dose: 50.0 mg/kg/injection, schedule: Q01DX009 (ip), vehicle: saline.
[5] abbreviates: dose: 25.0 mg/kg/injection, schedule: Q01DX009 (ip), vehicle: saline with Tween-80.
Where [6] appears, read: dose: 50.0 mg/kg/injection, schedule: Q01DX009 (ip), vehicle: saline with Tween-80.
Setting [7] is: dose: 100.0 mg/kg/injection, schedule: Q01DX009 (ip), vehicle: saline with Tween-80.
The mark [8] stands for this setting: dose: 200.0 mg/kg/injection, schedule: Q01DX009 (ip), vehicle: saline with Tween-80.
Setting [9] is: dose: 50.0 mg/kg/injection, schedule: Q01DX005 (ip), vehicle: Klucel (hydroxypropylcellulose) (HPC).
Setting [10] is: dose: 100.0 mg/kg/injection, schedule: Q01DX005 (ip), vehicle: Klucel (hydroxypropylcellulose) (HPC).
Setting [11] is: dose: 60.0 mg/kg/injection, schedule: Q01DX005 (ip), vehicle: saline with Tween-80.
[12] abbreviates: dose: 120.0 mg/kg/injection, schedule: Q01DX005 (ip), vehicle: saline with Tween-80.
Where [13] appears, read: dose: 240.0 mg/kg/injection, schedule: Q01DX005 (ip), vehicle: saline with Tween-80.

SMILES strings stand for the structures. “And” between values parts separate entries of the source, which are not always exact repeats. Identical values can stand only once. Inconclusive results and toxic doses are left out.

Consider `CN(C)c1ccc2[nH]c3c(C(N)=O)cc(=O)c(=O)c=3oc2c1`, for which the T/C runs as follows: (dose: 25.0 mg/kg/injection, schedule: Q01DX005 (ip), vehicle: saline with Tween-80) 100 % of control and 107 % of control; (dose: 50.0 mg/kg/injection, schedule: Q01DX005 (ip), vehicle: saline with Tween-80) 98 % of control and 100 % of control (2×); (dose: 100.0 mg/kg/injection, schedule: Q01DX005 (ip), vehicle: saline with Tween-80) 100 % of control and 120 % of control and 97 % of control; (dose: 200.0 mg/kg/injection, schedule: Q01DX005 (ip), vehicle: saline with Tween-80) 98 % of control and 107 % of control and 117 % of control.

With `COc1ccc(C[Se][Se]Cc2ccc(OC)cc2)cc1`, the T/C runs as follows: (dose: 6.25 mg/kg/injection, schedule: Q01DX009 (ip), vehicle: Klucel (hydroxypropylcellulose) (HPC)) 99 % of control; under setting [1], 108 % of control; under setting [2], 106 % of control.

For the molecule `COc1cc2c(c(OC)c1OC)-c1ccc(OC)c(=O)cc1[C@@H](N(C)C=O)CC2`, the T/C (dose: 1.25 mg/kg/injection, schedule: Q01DX009 (ip), vehicle: Klucel (hydroxypropylcellulose) (HPC)) is 171 % of control.

Turning to `Cc1ccc(S(=O)(=O)c2c(O)c3ccccc3c3nc4ccccc4nc23)cc1`, the T/C is, setting by setting: under setting [3], 90 % of control; (dose: 12.5 mg/kg/injection, schedule: Q01DX009 (ip), vehicle: suspension in saline) 88 % of control; (dose: 25.0 mg/kg/injection, schedule: Q01DX009 (ip), vehicle: suspension in saline) 90 % of control; under setting [4], 89 % of control; (dose: 50.0 mg/kg/injection, schedule: Q01DX009 (ip), vehicle: suspension in saline) 88 % of control; (dose: 200.0 mg/kg/injection, schedule: Q01DX009 (ip), vehicle: saline) 91 % of control.

Regarding `CCCCOP(=O)(NNP(=O)(OCCCC)OCCCC)OCCCC`, the T/C by setting is: under setting [5], 102 % of control; under setting [6], 102 % of control; under setting [7], 100 % of control; under setting [8], 101 % of control.

With `Clc1ccc(Nc2c3ccccc3nc3c2cnn3-c2ccccc2)cc1`, the T/C was 89 % of control (dose: 60.0 mg/kg/injection, schedule: Q01DX005 (ip), vehicle: Klucel (hydroxypropylcellulose) (HPC)); 99 % of control and 93 % of control (dose: 120.0 mg/kg/injection, schedule: Q01DX005 (ip), vehicle: Klucel (hydroxypropylcellulose) (HPC)); 100 % of control and 90 % of control (dose: 240.0 mg/kg/injection, schedule: Q01DX005 (ip), vehicle: Klucel (hydroxypropylcellulose) (HPC)).

On to `C#CCOC(=O)Nc1nc2ccc(SC#N)cc2s1`, for which the T/C runs as follows: under setting [1], 104 % of control; under setting [2], 107 % of control; (dose: 50.0 mg/kg/injection, schedule: Q01DX009 (ip), vehicle: Klucel (hydroxypropylcellulose) (HPC)) 107 % of control and 90 % of control.

`CCOP(=O)(O)OCC.[Ga]`: the T/C by setting is: (dose: 100.0 mg/kg/injection, schedule: Q04DX002 (ip), vehicle: saline with Tween-80) 106 % of control; (dose: 200.0 mg/kg/injection, schedule: Q04DX002 (ip), vehicle: saline with Tween-80) 103 % of control; (dose: 400.0 mg/kg/injection, schedule: Q04DX002 (ip), vehicle: saline with Tween-80) 97 % of control.

As for `O=[N+]([O-])O.O=[N+]([O-])O.[NH-]C(c1ccccc1)C([NH-])c1ccccc1.[Pt+2]` (stereo not drawn), the T/C (dose: 6.25 mg/kg/injection, schedule: Q04DX002 (ip), vehicle: saline) was 161 % of control; the T/C (dose: 12.5 mg/kg/injection, schedule: Q04DX002 (ip), vehicle: saline) is 154 % of control; the T/C (dose: 25.0 mg/kg/injection, schedule: Q04DX002 (ip), vehicle: saline) is 154 % of control.

`IC1=CC2CCC(C1)C2` (stereo not drawn): the T/C is, setting by setting: under setting [5], 100 % of control and 103 % of control; under setting [6], 104 % of control and 116 % of control and 93 % of control; under setting [7], 101 % of control and 109 % of control; under setting [8], 102 % of control and 122 % of control and 96 % of control.

In the case of `C=C(C)C(=NC)NC(C)(C)C`, the T/C by setting is: under setting [9], 100 % of control; under setting [10], 102 % of control.

As to `CNC(=O)O/N=C/C(C)(C)SC`, the T/C reads like this: (dose: 0.11 mg/kg/injection, schedule: Q01DX005 (ip), vehicle: Klucel (hydroxypropylcellulose) (HPC)) 101 % of control; (dose: 0.23 mg/kg/injection, schedule: Q01DX005 (ip), vehicle: Klucel (hydroxypropylcellulose) (HPC)) 101 % of control; (dose: 0.46 mg/kg/injection, schedule: Q01DX005 (ip), vehicle: Klucel (hydroxypropylcellulose) (HPC)) 101 % of control.

As for `CC(=O)O/C(C#N)=C1\CCCC\C1=C(\C#N)OC(C)=O`, the T/C (dose: 6.25 mg/kg/injection, schedule: Q01DX001 (ip), vehicle: saline with Tween-80) is 103 % of control; the T/C (dose: 12.5 mg/kg/injection, schedule: Q01DX001 (ip), vehicle: saline with Tween-80) was 107 % of control; the T/C (dose: 25.0 mg/kg/injection, schedule: Q01DX001 (ip), vehicle: saline with Tween-80) is 103 % of control.

On to `CC(=S)SC1(C)SC(C)(SC(C)=S)S1` (stereo not drawn), for which the T/C is, setting by setting: under setting [5], 91 % of control; under setting [6], 94 % of control; under setting [7], 94 % of control.

For the molecule `O=[N+]([O-])c1cccnc1Sc1ncccn1`, the T/C was 100 % of control (dose: 100.0 mg/kg/injection, schedule: Q04DX003 (ip), vehicle: saline with Tween-80); 100 % of control (dose: 200.0 mg/kg/injection, schedule: Q04DX003 (ip), vehicle: saline with Tween-80); 100 % of control (dose: 400.0 mg/kg/injection, schedule: Q04DX003 (ip), vehicle: saline with Tween-80).

With `COC1=CC(=O)c2c(O)c3c(c(O)c2C1=O)OC1(Oc2c(cc4cc(C)oc(=O)c4c2O)CC1O)C3O` (stereo not drawn), the T/C (dose: 3.0 mg/kg/injection, schedule: Q01DX009 (ip), vehicle: Klucel (hydroxypropylcellulose) (HPC)) was 100 % of control; the T/C (dose: 6.0 mg/kg/injection, schedule: Q01DX009 (ip), vehicle: Klucel (hydroxypropylcellulose) (HPC)) was 117 % of control; the T/C (dose: 12.0 mg/kg/injection, schedule: Q01DX009 (ip), vehicle: Klucel (hydroxypropylcellulose) (HPC)) is 99 % of control; the T/C (dose: 24.0 mg/kg/injection, schedule: Q01DX009 (ip), vehicle: Klucel (hydroxypropylcellulose) (HPC)) was 99 % of control.

In the case of `C[P+](C)(C)C`, the T/C under setting [11] was 87 % of control and the T/C under setting [12] is 93 % of control.

For `Cc1cc(C)c(S(=O)(=O)N/N=C(\CBr)c2ccccc2)c(C)c1`, the T/C was 97 % of control (dose: 7.5 mg/kg/injection, schedule: Q01DX005 (ip), vehicle: saline with Tween-80); 91 % of control (dose: 15.0 mg/kg/injection, schedule: Q01DX005 (ip), vehicle: saline with Tween-80); 102 % of control (dose: 30.0 mg/kg/injection, schedule: Q01DX005 (ip), vehicle: saline with Tween-80); 89 % of control under setting [13].

On to `O=C(O)CNC(=O)C(CSCc1ccccc1)NC(=O)OCc1ccccc1` (stereo not drawn), for which the T/C is 103 % of control under setting [9]; 101 % of control under setting [6]; 102 % of control under setting [10]; 99 % of control under setting [7]; 100 % of control (dose: 200.0 mg/kg/injection, schedule: Q01DX005 (ip), vehicle: Klucel (hydroxypropylcellulose) (HPC)); 99 % of control under setting [8].

`CCCSc1ccc2nc(NC(=O)OC)[nH]c2c1`: the T/C reads like this: under setting [11], 106 % of control and 111 % of control; under setting [12], 109 % of control and 112 % of control; (dose: 480.0 mg/kg/injection, schedule: Q01DX005 (ip), vehicle: saline with Tween-80) 156 % of control.

For `BrC[Si](CBr)(c1ccccc1)c1ccccc1`, the T/C is 106 % of control under setting [3]; 106 % of control (dose: 25.0 mg/kg/injection, schedule: Q01DX009 (ip), vehicle: saline); 99 % of control and 92 % of control under setting [4].

As for `COc1cc(C(c2cc3c(cc2O)OCO3)N2CCOCC2)cc(OC)c1OC` (stereo not drawn), the T/C was 107 % of control under setting [11] and 111 % of control under setting [12].

With `OCCN(CO)CCO`, the T/C was 117 % of control under setting [11], 123 % of control under setting [12] and 115 % of control under setting [13].

In the case of `C=CC[C@]1(S(=O)(=O)c2ccccc2)[C@@H](N(C)C)C[C@@H](O[Si](C)(C)C(C)(C)C)[C@@H]1/C=C/[C@H](CCCCC)O[Si](C)(C)C(C)(C)C`, the T/C is 107 % of control (dose: 12.5 mg/kg/injection, schedule: Q01DX005 (ip), vehicle: Klucel (hydroxypropylcellulose) (HPC)); 111 % of control (dose: 25.0 mg/kg/injection, schedule: Q01DX005 (ip), vehicle: Klucel (hydroxypropylcellulose) (HPC)); 107 % of control under setting [9].
